Results on 41 molecules are retold here after ChEMBL document CHEMBL1681661, “Design of novel CXCR4 antagonists that are potent inhibitors of T-tropic (X4) HIV-1 replication” (Bioorg Med Chem Lett, 2011).

As usually defined, the CC50 is the concentration at which the toxic effect on the cells reaches its halfway point. Usually IC50 stands for the midpoint of a concentration-inhibition curve. For orientation: Cmax means the highest concentration seen after dosing. One may read the AUC(0-inf) as the area under the concentration-time curve extrapolated to infinity. The term half-life denotes the time needed for the level to fall by half in the phase considered. By clearance is commonly meant the volume of plasma or blood freed of the substance per unit of time. By bioavailability is commonly meant dose-corrected exposure relative to a reference, in per cent.

Bounds are passed on as bounds.

A short description of data set [1]: Cytotoxicity against human MT4 cells expressing CD4 and CXCR4 assessed as cell viability. The data set is classed as cell-based.
Data set [2] relates to Human immunodeficiency virus 1. As to the kind of experiment: Antiviral activity against X4 tropic HIV1 NL4.3 infected in CD4 and CXCR4 expressing human MT4 cells assessed as inhibition of viral cytopathicity. The class given is functional, organism-based. Conditions: Human immunodeficiency virus 1, NL4.3, MT4. On the technique in general: Cytopathic effects are the visible damage that an infection or toxin causes in cultured cells.

Data set [3] is described as follows: Cmax in rat. The class given is ADME, organism-based. The note with it: in vivo.
A short description of data set [4]: AUC (0 to infinity) in dog. More on the design: time infinity; concentration or dose not given beside the values. The note with it: plasma. The data set is classed as ADME, organism-based, Canis lupus familiaris.
Data set [5] deals with Human immunodeficiency virus 1. Put plainly: Antiviral activity against X4 tropic HIV1 NL4.3 infected in human PBMC assessed as inhibition of viral cytopathicity in presence of 1 mg/ml of alpha-acid glycoprotein. The class given is functional.
Data set [6] can be described thus: AUC (0 to infinity) in rat. The class given is ADME, organism-based. Further details: time infinity; concentration or dose not given beside the values. Conditions: plasma.
The test system of data set [7] is Human immunodeficiency virus 1. As to the kind of experiment: Antiviral activity against X4 tropic HIV1 NL4.3 infected in human PBMC assessed as inhibition of viral cytopathicity. Conditions: Human immunodeficiency virus 1, NL4.3. The class given is functional, organism-based.
Data set [8] can be described thus: Cmax in dog. The data set is classed as ADME, organism-based, Canis lupus familiaris. The note with it: in vivo.
Data set [9] is described as follows: Half life in dog at 5 umol/kg, iv. The note with it: in vivo. The class given is ADME, organism-based, Canis lupus familiaris.
Data set [10] can be described thus: Clearance in rat at 10 umol/kg, iv. The class given is ADME, organism-based. Conditions: in vivo.
Data set [11] is described as follows: Half life in rat at 10 umol/kg, iv. The data set is classed as ADME, organism-based. The note with it: in vivo.
The nature of data set [12]: Volume of distribution at steady state in rat at 10 umol/kg, iv. The note with it: in vivo, read-out: Vdss. The class given is ADME, organism-based.
Data set [13] is described as follows: Oral bioavailability in dog at 12.5 umol/kg. The data set is classed as ADME, organism-based, Canis lupus familiaris. Conditions: in vivo.
The nature of data set [14]: Clearance in dog at 5 umol/kg, iv. The class given is ADME, organism-based, Canis lupus familiaris. The note with it: in vivo.
The target of data set [15] is T1, C-X-C chemokine receptor type 4 (Homo sapiens, UniProt P61073). As to the kind of experiment: Displacement of [125I]SDF-1alpha from CXCR4 in human CEM-CCRF cells by liquid scintillation counting. The class given is cell-based. A general note: In a radioligand displacement assay an active substance lowers the binding of a labelled ligand.
T1 sequence (P61073 whole entry): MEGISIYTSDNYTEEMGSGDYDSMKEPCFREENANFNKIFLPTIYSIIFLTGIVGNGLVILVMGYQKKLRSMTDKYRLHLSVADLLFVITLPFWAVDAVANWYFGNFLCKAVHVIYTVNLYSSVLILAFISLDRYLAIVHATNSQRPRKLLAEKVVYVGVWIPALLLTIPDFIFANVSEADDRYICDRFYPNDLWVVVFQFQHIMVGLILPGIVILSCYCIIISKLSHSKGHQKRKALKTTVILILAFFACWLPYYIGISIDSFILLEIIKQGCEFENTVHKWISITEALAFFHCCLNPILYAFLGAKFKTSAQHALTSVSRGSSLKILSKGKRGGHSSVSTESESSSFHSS
The nature of data set [16]: Volume of distribution at steady state in dog at 5 umol/kg, iv. The note with it: in vivo, read-out: Vdss. The data set is classed as ADME, organism-based, Canis lupus familiaris.
Data set [17] in a line: Oral bioavailability in rat at 100 umol/kg, […]. Conditions: in vivo. The class given is ADME, organism-based.
Data set [18] addresses T1, C-X-C chemokine receptor type 4. Put plainly: Antagonist activity at CXCR4 in human CEM-CCRF cells assessed as inhibition of SDF-1-induced calcium signaling. The class given is functional, cell-based.

Take `NCCCCN(Cc1ncccc1Cl)C1CCCc2cccnc21` (stereo not given): in [1], the CC50 came to 191000 nM. The IC50 in data set [2] was determined as 0.4 nM.
For `CC(c1ccccn1)N(CCCCN)Cc1nc2ccccc2[nH]1` (stereo not given), in that order: > 161000 nM and 18 nM.
In the same order, the values of `CCC(c1ccccn1)N(CCCCN)Cc1nc2ccccc2[nH]1` (stereo not given) are > 162000 nM and 874 nM.
For `CC(C)C(c1ccccn1)N(CCCCN)Cc1nc2ccccc2[nH]1` (stereo not given), in that order: > 162000 nM and 16300 nM.
As to `NCCCCN(Cc1nc2ccccc2[nH]1)C(c1ccccc1)c1ccccn1` (stereo not given), the CC50 in data set [1] is > 148000 nM. The IC50 in [2] was determined as 13300 nM.
Consider `CC(C)(c1ccccn1)N(CCCCN)Cc1nc2ccccc2[nH]1`, for which the CC50 in data set [1] was > 159000 nM. Further, the IC50 in [2] was determined as 2500 nM.
In the same order, the values of `NCCCCN(Cc1ccccn1)Cc1nc2ccccc2[nH]1` are 151000 nM and 41 nM.
In the same order, the values of `NCCCCN(Cc1nc2ccccc2[nH]1)Cc1ncccc1O` are > 149000 nM and > 149000 nM.
In the case of `CC(C)c1cccnc1CN(CCCCN)Cc1nc2ccccc2[nH]1`, the CC50 in data set [1] stood at 145000 nM. Moreover, the IC50 in data set [2] stood at 34 nM.
`Cc1cccnc1C(C)N(CCCCN)Cc1nc2ccccc2[nH]1` (stereo not given): the CC50 in data set [1] is > 146000 nM. The IC50 in data set [2] was 505 nM.
Regarding `Cc1ccnc(C(C)N(CCCCN)Cc2nc3ccccc3[nH]2)c1` (stereo not given), the CC50 in [1] was > 142000 nM. The IC50 in data set [2] was 438 nM.
In the same order, the values of `Cc1ccc(C(C)N(CCCCN)Cc2nc3ccccc3[nH]2)nc1` (stereo not given) are > 146000 nM and 3.8 nM.
In the same order, the values of `Cc1cccc(C(C)N(CCCCN)Cc2nc3ccccc3[nH]2)n1` (stereo not given) are > 167000 nM and 4100 nM.
With `CC(c1cccc(N)n1)N(CCCCN)Cc1nc2ccccc2[nH]1` (stereo not given), in data set [1], the CC50 was > 149000 nM. Further, the IC50 in [2] turned out to be 2290 nM.
For `Cc1cccnc1CN(CCCCN)C(C)c1ccccn1` (stereo not given), in that order: 45400 nM and 1.1 nM.
As to `Cc1cccc(CN(CCCCN)[C@H]2CCCc3cccnc32)n1`, the Cmax in data set [3] is 1460 nM; in [8], 2060 nM. Moreover, the values for the IC50 in data set [2] and in data set [7] were 2.4 nM and 15.8 nM, respectively. In addition, the AUC(0-inf) was 7.75 µM·h in data set [4] and 8.75 µM·h in data set [6]. For the same molecule, in data set [5], the “fold change (FC)” value came to 0.6.
For `Cc1cnc(CN(CCCCN)[C@H]2CCCc3cccnc32)c(C)c1`, the Cmax was found to be 2700 nM in data set [3] and 7160 nM in data set [8]. The half-life in data set [9] was 39.6 h; in [11], 10.5 h. In addition, the figures for the clearance in [10] and in [14] were 31.7 mL/min/kg and 3.3 mL/min/kg, respectively. Besides, the IC50 turned out to be 7.7 nM in data set [2], 3.6 nM in data set [7] and 62.9 nM in [15]. Moreover, the AUC(0-inf) in data set [4] is 22.1 µM·h; in [6], 20.7 µM·h. For the same molecule, the Vd in data set [12] worked out at 28.5 L/kg; in [16] it was 8.7 L/kg. For the same molecule, the “fold change (FC)” value in data set [5] was 2.8. Moreover, the bioavailability in data set [13] turned out to be 51%; in data set [17], 42%.
Consider `NCCCCN(Cc1ncccc1N)[C@H]1CCCc2cccnc21`, for which the values for the Cmax in data set [3] and in data set [8] were 1660 nM and 7740 nM, respectively. Further, the IC50 in data set [2] was 1.6 nM; in data set [7] it was 2.1 nM. Besides, the total exposure AUC(0-inf) in data set [4] amounted to 21.2 µM·h; in data set [6], 8.73 µM·h. Also, the “fold change (FC)” value in data set [5] is reported as 4.3.
With `C[C@@H](c1ccccn1)N(CCCCN)Cc1nc2ccccc2[nH]1`, the results for the Cmax in data set [3] and in [8] were 180 nM and 1330 nM, respectively. In addition, the values for the IC50 in [2] and in data set [7] were 1.4 nM and 2 nM, respectively. Besides, the AUC(0-inf) in data set [4] turned out to be 1.7 µM·h; in data set [6], 0.33 µM·h. Also, in data set [5], the “fold change (FC)” value is 5.4.
`Cc1cccnc1CN(CCCCN)[C@@H](C)c1ccccn1`: the highest level in data set [3] (Cmax) was 1580 nM. The IC50 is 1.1 nM in data set [2] and 2.1 nM in [7]. Further, the AUC(0-inf) stood at 7.49 µM·h in [4] and 11.2 µM·h in [6]. Moreover, the “fold change (FC)” value in data set [5] worked out at 14.2.
With `NCCCCN(Cc1ccccn1)C1CCCc2cccnc21` (racemic), in [1], the CC50 is 165000 nM. For the same molecule, in [2], the IC50 stood at 15.3 nM.
In the same order, the values of `Cc1cccnc1CN(CCCCN)C1CCCc2cccnc21` (racemic) are 32400 nM and 23.3 nM.
As to `Cc1ccnc(CN(CCCCN)C2CCCc3cccnc32)c1` (racemic), the CC50 in [1] was determined as 36900 nM. The IC50 in data set [2] was 47.8 nM.
With `Cc1ccc(CN(CCCCN)C2CCCc3cccnc32)nc1` (racemic), the CC50 in data set [1] was 35300 nM. The IC50 in data set [18] came to 35 nM; in data set [2], 5.3 nM.
`Cc1cccc(CN(CCCCN)C2CCCc3cccnc32)n1` (racemic): in data set [1], the CC50 was 299000 nM. The IC50 in data set [2] is 2.9 nM.
In the same order, the values of `Cc1cc(C)nc(CN(CCCCN)C2CCCc3cccnc32)c1` (racemic) are 149000 nM and 17 nM.
On to `Cc1cnc(CN(CCCCN)C2CCCc3cccnc32)c(C)c1` (racemic), for which the CC50 in [1] was determined as 32600 nM. Further, the IC50 in [18] is 19 nM; in [2], 0.63 nM.
On to `NCCCCN(Cc1cccc(N)n1)C1CCCc2cccnc21` (racemic), for which the CC50 in [1] is 158000 nM. The IC50 in data set [2] came to 30 nM.
For the molecule `COCc1cccc(CN(CCCCN)C2CCCc3cccnc32)n1` (racemic), in [1], the CC50 was > 154000 nM. For the same molecule, in data set [2], the IC50 came to 553 nM.
For `NCCCCN(Cc1ncccc1O)C1CCCc2cccnc21` (racemic), in that order: 149000 nM and 113 nM.
For `NCCCCN(Cc1ncccc1N)C1CCCc2cccnc21` (racemic), in that order: 169000 nM and 19.7 nM.
For `CC(C)c1cccnc1CN(CCCCN)C1CCCc2cccnc21` (racemic), in that order: 33800 nM and 8.4 nM.
As to `NCCCCN(Cc1ncccc1CO)C1CCCc2cccnc21` (racemic), the CC50 in data set [1] turned out to be 155000 nM. For the same molecule, in data set [2], the IC50 is 2.1 nM.
For the molecule `CC(c1ccccn1)N(CCCCN)Cc1ncccc1N` (racemic), the CC50 in data set [1] came out at 167000 nM. The IC50 amounted to 72 nM in data set [18] and 18.4 nM in [2].
For `CC(c1ccccn1)N(CCCCN)Cc1ncccc1C(F)(F)F` (racemic), the CC50 in data set [1] was > 155000 nM. The IC50 in data set [18] came out at 111 nM; in data set [2] it was 39.1 nM.
As to `CC(c1ccccn1)N(CCCCN)Cc1ncccc1C(C)(C)C` (racemic), in data set [1], the CC50 worked out at 158000 nM. For the same molecule, in data set [2], the IC50 came out at 1.6 nM.
Turning to `Cc1ccc(CN(CCCCN)C(C)c2ccccn2)nc1` (racemic), the CC50 in data set [1] stood at 158000 nM. Moreover, in data set [2], the IC50 was found to be 48.1 nM.
As to `Cc1cccc(CN(CCCCN)C(C)c2ccccn2)n1` (racemic), the CC50 in [1] was > 145000 nM. The results for the IC50 in [18] and in data set [2] were 183 nM and 15 nM, respectively.
In the same order, the values of `Cc1cnc(CN(CCCCN)C(C)c2ccccn2)c(C)c1` (racemic) are 163000 nM, 20 nM and 1.8 nM.
In the case of `Cc1ccnc(C(C)N(CCCCN)Cc2ncccc2C)c1` (racemic), the CC50 in data set [1] was 138000 nM. Further, in [2], the IC50 amounted to 0.3 nM.
Take `NCCCCN(Cc1nc2ccccc2[nH]1)[C@H]1CCCc2cccnc21` [MAVORIXAFOR]: in data set [2], the IC50 came out at 4.8 nM.
